Laboratory results as given in ChEMBL document CHEMBL4219265, “Piperlongumine derivative, CG-06, inhibits STAT3 activity by direct binding to STAT3 and regulating the reactive oxygen species in DU145 prostate carcinoma cells” (Bioorg Med Chem Lett, 2018).

Key:
DU-145 [1] = assay: Effect on total STAT3 protein level in human DU145 cells assessed as ratio of STAT3 protein level to GAPDH protein level at 5 uM after 3 hrs by Western blot analysis (reference value: 1); format: ADME, cell-based; details: du-145, 3 h
DU-145 [2] = assay: Induction of apoptosis in human DU145 cells at 5 uM after 12 hrs by flow cytometry (reference value: 0.61%); format: functional
DU-145 [3] = assay: Growth inhibition of human DU145 cells after 48 hrs by WST-1 assay; format: functional; details: DU-145, 48 h
[4] = biological target: T1, Signal transducer and activator of transcription 3 (Homo sapiens, UniProt P40763); assay: Binding affinity to STAT3 in human DU145 cell lysates assessed as reduction in pronase-induced STAT3 digestion by measuring ratio of STAT3 protein level to GAPDH protein level at 10 uM incubated for 1 hr in absence of pronase by Western blot analysis (reference value: 1)
[5] = biological target: T1, Signal transducer and activator of transcription 3; assay: Inhibition of STAT3 in human DU145 cells assessed as ratio of Bcl-xl protein level to tubulin protein level at 5 uM after 48 hrs by Western blot analysis (reference value: 1); format: cell-based
DU-145 [6] = assay: Cell cycle arrest in human DU145 cells assessed as accumulation at S phase at 5 uM after 12 hrs by flow cytometry (reference value: 6.6%); format: functional
[7] = biological target: T1, Signal transducer and activator of transcription 3; assay: Inhibition of STAT3-induced ERK1/2 phosphorylation in human DU145 cells assessed as ratio of phosphorylated ERK1/2 protein level to GAPDH protein level at 5 uM after 6 hrs by Western blot analysis (reference value: 1); format: cell-based
[8] = biological target: T1, Signal transducer and activator of transcription 3; assay: Inhibition of STAT3 phosphorylation at Tyr705 residues in human DU145 cells assessed as ratio of phosphorylated STAT3 protein level to GAPDH protein level at 5 uM after 0.5 hrs by Western blot analysis (reference value: 1); format: cell-based
PC-3 = assay: Growth inhibition of human PC3 cells after 48 hrs by WST-1 assay; format: functional; details: PC-3, 48 h
[9] = biological target: T1, Signal transducer and activator of transcription 3; assay: Binding affinity to STAT3 in human DU145 cell lysates assessed as reduction in pronase-induced STAT3 digestion by measuring ratio of STAT3 protein level to GAPDH protein level at 50 uM incubated for 1 hr followed by 0.05% pronase addition for 10 mins by Western blot analysis (reference value: 0.4)
[10] = biological target: T1, Signal transducer and activator of transcription 3; assay: Inhibition of STAT3 phosphorylation at Tyr705 residues in human DU145 cells assessed as ratio of phosphorylated STAT3 protein level to GAPDH protein level at 0.5 uM after 24 hrs by Western blot analysis (reference value: 1); format: cell-based
[11] = biological target: T1, Signal transducer and activator of transcription 3; assay: Binding affinity to STAT3 in human DU145 cell lysates assessed as reduction in pronase-induced STAT3 digestion by measuring ratio of STAT3 protein level to GAPDH protein level at 50 uM incubated for 1 hr followed by 0.01% pronase addition for 10 mins by Western blot analysis (reference value: 0.7)
[12] = biological target: T1, Signal transducer and activator of transcription 3; assay: Stabilization of STAT3 in human DU145 cell lysates by measuring ratio of STAT3 protein level to GAPDH protein level at 50 uM incubated for 1 hr in absence of pronase by Western blot analysis (reference value: 1)
[13] = biological target: T1, Signal transducer and activator of transcription 3; assay: Binding affinity to STAT3 in human DU145 cell lysates assessed as reduction in pronase-induced STAT3 digestion by measuring ratio of STAT3 protein level to GAPDH protein level at 50 uM incubated for 1 hr followed by 0.005% pronase addition for 10 mins by Western blot analysis (reference value: 0.9)
DU-145 [14] = assay: Cell cycle arrest in human DU145 cells assessed as accumulation at G0/G1 phase at 5 uM after 12 hrs by flow cytometry (reference value: 24.07%); format: functional
[15] = biological target: T1, Signal transducer and activator of transcription 3; assay: Binding affinity to STAT3 in human DU145 cell lysates assessed as reduction in pronase-induced STAT3 digestion by measuring ratio of STAT3 protein level to GAPDH protein level at 100 uM incubated for 1 hr in absence of pronase by Western blot analysis (reference value: 1)
[16] = biological target: T1, Signal transducer and activator of transcription 3; assay: Inhibition of STAT3 in human DU145 cells assessed as ratio of PARP protein level to tubulin protein level at 5 uM after 48 hrs by Western blot analysis (reference value: 1); format: cell-based
DU-145 [17] = assay: Effect on total STAT3 protein level in human DU145 cells assessed as ratio of STAT3 protein level to GAPDH protein level at 5 uM after 6 hrs by Western blot analysis (reference value: 1); format: ADME, cell-based; details: du-145, 6 h
[18] = biological target: T1, Signal transducer and activator of transcription 3; assay: Inhibition of STAT3 phosphorylation at Tyr705 residues in human DU145 cells assessed as ratio of phosphorylated STAT3 protein level to GAPDH protein level at 5 uM after 6 hrs by Western blot analysis (reference value: 1); format: cell-based
[19] = biological target: T1, Signal transducer and activator of transcription 3; assay: Inhibition of STAT3 phosphorylation at Tyr705 residues in human DU145 cells assessed as ratio of phosphorylated STAT3 protein level to GAPDH protein level at 5 uM after 24 hrs by Western blot analysis (reference value: 1); format: cell-based
DU-145 [20] = assay: Cell cycle arrest in human DU145 cells assessed as accumulation at G2/M phase at 5 uM after 24 hrs by flow cytometry (reference value: 18.12%); format: functional
DU-145 [21] = assay: Cell cycle arrest in human DU145 cells assessed as accumulation at S phase at 5 uM after 48 hrs by flow cytometry (reference value: 6.6%); format: functional
[22] = biological target: T1, Signal transducer and activator of transcription 3; assay: Binding affinity to STAT3 in human DU145 cell lysates assessed as reduction in pronase-induced STAT3 digestion by measuring ratio of STAT3 protein level to GAPDH protein level at 10 uM incubated for 1 hr followed by 0.05% pronase addition for 10 mins by Western blot analysis (reference value: 1)
DU-145 [23] = assay: Effect on total STAT3 protein level in human DU145 cells assessed as ratio of ERK1/2 protein level to GAPDH protein level at 5 uM preincubated with NAC for 1 hr followed by compound addition for 1 hr by Western blot analysis (reference value: 1); format: ADME, cell-based; details: du-145, 1 h
DU-145 [24] = assay: Induction of apoptosis in human DU145 cells at 5 uM after 48 hrs by flow cytometry (reference value: 0.61%); format: functional
[25] = biological target: T1, Signal transducer and activator of transcription 3; assay: Inhibition of STAT3-induced ERK1/2 phosphorylation in human DU145 cells assessed as ratio of phosphorylated ERK1/2 protein level to GAPDH protein level at 5 uM after 3 hrs by Western blot analysis (reference value: 1); format: cell-based
[26] = biological target: T1, Signal transducer and activator of transcription 3; assay: Inhibition of STAT3 phosphorylation at Tyr705 residues in human DU145 cells assessed as ratio of phosphorylated STAT3 protein level to GAPDH protein level at 0.1 uM after 24 hrs by Western blot analysis (reference value: 1); format: cell-based
[27] = biological target: T1, Signal transducer and activator of transcription 3; assay: Inhibition of STAT3 in human DU145 cells assessed as ratio of survivin protein level to tubulin protein level at 5 uM after 48 hrs by Western blot analysis (reference value: 1); format: cell-based
[28] = biological target: T1, Signal transducer and activator of transcription 3; assay: Inhibition of STAT3-induced ERK1/2 phosphorylation in human DU145 cells assessed as ratio of phosphorylated ERK1/2 protein level to GAPDH protein level at 5 uM after 0.5 hrs by Western blot analysis (reference value: 1); format: cell-based

T1 sequence (P40763 whole entry): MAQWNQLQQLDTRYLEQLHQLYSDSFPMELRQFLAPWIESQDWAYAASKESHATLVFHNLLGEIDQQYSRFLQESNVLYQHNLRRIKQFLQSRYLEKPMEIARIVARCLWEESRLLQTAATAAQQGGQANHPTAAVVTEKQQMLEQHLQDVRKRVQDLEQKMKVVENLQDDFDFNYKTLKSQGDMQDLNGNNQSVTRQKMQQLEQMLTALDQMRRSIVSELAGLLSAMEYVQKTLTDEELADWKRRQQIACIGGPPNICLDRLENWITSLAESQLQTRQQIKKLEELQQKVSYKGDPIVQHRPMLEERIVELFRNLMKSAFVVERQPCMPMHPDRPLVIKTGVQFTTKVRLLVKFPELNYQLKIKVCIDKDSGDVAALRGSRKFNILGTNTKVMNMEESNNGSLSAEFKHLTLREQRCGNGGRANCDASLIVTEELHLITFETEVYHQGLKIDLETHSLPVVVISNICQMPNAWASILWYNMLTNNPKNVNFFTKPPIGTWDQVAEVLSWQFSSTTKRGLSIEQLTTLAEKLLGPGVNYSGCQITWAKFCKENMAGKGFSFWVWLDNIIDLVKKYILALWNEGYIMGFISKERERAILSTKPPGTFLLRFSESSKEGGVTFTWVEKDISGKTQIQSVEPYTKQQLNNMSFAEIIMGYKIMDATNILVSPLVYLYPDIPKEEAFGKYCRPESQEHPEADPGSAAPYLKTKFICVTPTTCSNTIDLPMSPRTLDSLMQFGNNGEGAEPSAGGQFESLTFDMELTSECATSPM

Ratio (DU-145 [1]): 1
GI50 (DU-145 [3]): 900 nM
Ratio [4]: 1.1
Ratio [5]: 1
Ratio [7]: 2.2
Ratio [8]: 0.5
GI50 (PC-3): > 10000 nM
Ratio [9]: 0.5
Ratio [10]: 0.7
Ratio [11]: 0.6
Ratio [12]: 1
Ratio [13]: 0.8
Ratio [15]: 1.2
Ratio [16]: 0.3 to 0.6
Ratio (DU-145 [17]): 1
Ratio [18]: 0.2
Ratio [19]: 0.3
Ratio [22]: 2.1
Ratio (DU-145 [23]): 0.7
Ratio [25]: 2
Ratio [26]: 0.9
Ratio [28]: 1.6
Structure (SMILES): C=C(C)C(=O)N(Cc1ccc(Br)cc1)C(=O)/C=C/c1cc(OC)c(OC)c(OC)c1
Activity (DU-145 [2]): 0.65%
Activity (DU-145 [6]): 8.76%
Activity (DU-145 [14]): 38.15%
Activity (DU-145 [20]): 22.2%
Activity (DU-145 [21]): 6.57%
Activity (DU-145 [24]): 7.61%
Ratio [27]: 0.7
